Laboratory results published in patent publication US11925632B2, “Isoquinoline derivatives for use in treating GLUT1 deficiency syndrome” (GLIAPHARM SA, priority 2019, dated 2024).
Entries after “also recorded” stand apart in the source; their conditions may differ.

Columns and labels:
[1] = test system: primary astrocytes; assay: MTT mitochondrial activity assay; format: cell-based; conditions: Mus musculus, Astrocyte, 24 h treatment
Description: Primary cultures of cerebrocortical astrocytes were obtained from 1 to 2-day-old OF1 mouse pups (Charles River). Briefly, cortices were isolated and minced in small pieces under a dissecting microscope. The cells were incubated for 30 min at 37° C. in a solution containing 20 U/ml papain, 1 mM L-cysteine and 10 kU/ml DNase I. After dissociation, papain activity was stopped by the addition of fetal calf serum (FCS). Single-cell suspension was then obtained by mechanical dissociation, which consisted in cells trituration in a DMEM D7777 medium supplemented with 44 mm NaHCO3, 10 ml/L antibiotic/antimycotic solution and 10% FCS. The cells were seeded at an average density of ˜10′000 cells/cm^2 on poly-D-lysine coated 96- or 12-well culture plates, depending on their use, and grown in DMEM D7777 medium supplemented with 44 mm NaHCO3, 10 ml/L antibiotic/antimycotic solution and 10% FCS at 37° C. in a humidified atmosphere containing 5% CO2/95% air. Culture medium was renewed twice a week. Cells were stimulated and harvested between DIV14 and DIV17, when confluence and cell growth were optimal.
To monitor mitochondrial activity in astrocytes, which is linked to the metabolic process of glycolysis and production of lactate, astrocytes in 96-well plates were stimulated for 24 h (37° C. 5% CO2/95% air) with the compounds of the invention ranging from 0.2 to 200 μM.
After stimulation, 5 mg/ml thiazol blue tetrazolium bromide (MTT) in D5030 medium complemented with 5 mM D-glucose and 44 mM sodium bicarbonate (pH 7.2) was added to each well, and cells were incubated for 4 h at 37° C. (5% CO2). The medium was then removed and the amount of reduced MTT, i.e. formazan, solubilized in DMSO (50 μl/well) was determined using a spectrophotometer (absorbance of 570 nm).
The mitochondrial activity in primary astrocytes treated with Compounds (1) to (4) at concentrations ranging from 1 nM to 200 μM. After 24 h, mitochondrial activity was monitored in MTT colorimetric assay as described above (FIG. 3).

[2] = test system: astrocytes transfected with GLUT1 siRNA; assay: 2-deoxyglucose (2DG) uptake, GLUT1 siRNA astrocytes (cellular model of GLUT1-DS); format: cell-based, mouse; conditions: 30 min treatment, 1 or 10 μM, vs vehicle
Description: Astrocytes grown on 12-well plates and transfected with either scramble siRNA or GLUT1 siRNA were used. 1 day after having replaced transfection medium (DIV13), 2DG uptake was measured after treatment for 30 min with Vehicle (0.1% DMSO) or with the compound of the invention (1) (concentrations of 1 or 10 μM). During treatment, 1 mM 2DG was added to the medium for assessment of 2DG uptake. At the end of the stimulation, medium was removed and replaced with 150 μl NaOH 0.1M, and stored at −20° C. After thawing, cells were collected using cell scraper and heated for 40 min at 85° C. Then, 150 ul HCl 0.1M and TAE buffer 200 mM was added to each condition. 20 μl were added to a transparent 96-well plate and 2DG was quantified by addition of a reaction solution containing 50 mM TAE, 50 mM KCl, 0.02% BSA, 0.1 mM NADP, 0.2 U/ml diaphorase, 2 mM resazurin and 20 U/ml glucose-6-phosphate dehydrogenase. Concentration of 2DG in samples were calculated by comparison with standard curve of deoxy-glucose-6-phosphate ranging from 0 to 1 nmoles.
Scramble and GLUT1 siRNA sequences were as following:
Cells were grown in transfection medium for 3 days at 37° C. in a humidified atmosphere containing 5% CO2/95% air. […]
2DG uptake after treatment with Veh or compound of the invention (1) was measured in astrocytes transfected with scramble siRNA or GLUT1 siRNA (FIG. 4A).

[3] = test system: GLUT1-DS mice; assay: Cerebral extracellular lactate and glucose biosensors, GLUT1-DS transgenic mice; format: in vivo, mouse; conditions: medial prefrontal cortex, 10 mg/kg and/or 100 mg/kg oral, AUC ratio vs vehicle
Source text: Transgenic mice on 129/SvJ genetic background in which GLUT1 has been knocked-down (GLUT1-DS mice) were used (Wang et al., […], Human Molecular Genetics, 15(7)). Mating colonies were composed of wild-type female mice and GLUT1-DS male mice, or GLUT1-DS female mice and wild-type male mice. F1 pups were genotyped after ear punching at weaning using PCR to determine genotype. Mice of 2 to 3 months of age were used.
Cerebral extracellular levels of lactate and glucose were monitored in vivo in GLUT1-DS transgenic male mice and wild-type (WT) male littermates using lactate and glucose biosensors (Pinnacle Technology), according to the manufacturer's instructions. […] After surgery, mice were monitored closely and received analgesic treatment for at least 4 days. After mice had fully recovered from surgery, compounds of the invention of vehicle were administered per os as previously described and cerebral levels of extracellular lactate or glucose were dynamically recorded for 6 hours using lactate or glucose biosensors, respectively. […] Concentration of cerebral extracellular lactate or glucose was calculated from lactate or glucose probe electric signals, respectively, using post-calibration values, as described by manufacturer. […]

For `COc1cc2ccnc(Nc3ccc(OC(F)(F)F)cc3)c2cc1OC` [Example 1, 6,7-dimethoxy-N-(4-(trifluoromethoxy)phenyl)isoquinolin-1-amine], the IC50 [1] was 34.4 µM, the 2DG uptake [2] was “restored; also recorded: significantly enhances 2DG uptake” and the “Extracellular glucose levels in the brain” value [3] was “significantly increases”. The “Extracellular lactate levels in the brain” value [3] was “significantly increases”.
